Results as given in patent US20090093469A1, “Phenylaminopropanol Derivatives and Methods of Their Use” (WYETH, priority 2004, published 2009).
Where a name gives a salt, the structure may show the parent alone.

These compounds were tested against T1, hNET (Homo sapiens, UniProt P23975) (assay: Norepinephrine (NE) uptake assay in MDCK-Net6 cells stably transfected with human hNET). Details: MDCK-Net6, read-out: % Inhibition @ 1 μM (hNET).
T1 construct: expressed in transfected cells
Assay type: cell-based
Description: Cells were plated at 300,000/T75 flask and cells were split twice weekly. […] Cells were plated at 250,000 cells/T75 flask and split twice weekly.
On day 1, cells were plated at 3,000 cells/well in growth medium and maintained in a cell incubator (37° C., 5% CO2). On day 2, growth medium was replaced with 200 μl of assay buffer (25 mM HEPES; 120 mM NaCl; 5 mM KCl; 2.5 mM CaCl2; 1.2 mM MgSO4; 2 mg/ml glucose (pH 7.4, 37° C.)) containing 0.2 mg/ml ascorbic acid and 10 μM pargyline. Plates containing cells with 200 μl of assay buffer were equilibrated for 10 minutes at 37° C. prior to addition of compounds. A stock solution of desipramine was prepared in DMSO (10 mM) and delivered to triplicate wells containing cells for a final test concentration of 1 μM. Data from these wells were used to define non-specific NE uptake (minimum NE uptake). Test compounds were prepared in DMSO (10 mM) and diluted in assay buffer according to test range (1 to 10,000 nM). Twenty-five microliters of assay buffer (maximum NE uptake) or test compound were added directly to triplicate wells containing cells in 200 μl of assay buffer. The cells in assay buffer with test compounds were incubated for 20 minutes at 37° C. To initiate the NE uptake, [^3H]NE diluted in assay buffer (120 nM final assay concentration) was delivered in 25 μl aliquots to each well and the plates were incubated for 5 minutes (37° C.). The reaction was terminated by decanting the supernatant from the plate. The plates containing cells were washed twice with 200 μl assay buffer (37° C.) to remove free radioligand. The plates were then inverted, left to dry for 2 minutes, then reinverted and air-dried for an additional 10 minutes. The cells were lysed in 25 μl of 0.25 N NaOH solution (4° C.), placed on a shake table and vigorously shaken for 5 minutes. After cell lysis, 75 μl of scintillation cocktail was added to each well and the plates were sealed with film tape. The plates were returned to the shake table and vigorously shaken for a minimum of 10 minutes to ensure adequate partitioning of organic and aqueous solutions. The plates were counted in a Wallac Microbeta counter (PerkinElmer) to collect the raw cpm data.
For each experiment, a data stream of cpm values collected from the Wallac Microbeta counter was downloaded to a Microsoft Excel statistical application program. Calculations of EC50 values were made using the transformed-both-sides logistic dose response program written by Wyeth Biometrics Department.

T1 sequence (P23975 whole entry): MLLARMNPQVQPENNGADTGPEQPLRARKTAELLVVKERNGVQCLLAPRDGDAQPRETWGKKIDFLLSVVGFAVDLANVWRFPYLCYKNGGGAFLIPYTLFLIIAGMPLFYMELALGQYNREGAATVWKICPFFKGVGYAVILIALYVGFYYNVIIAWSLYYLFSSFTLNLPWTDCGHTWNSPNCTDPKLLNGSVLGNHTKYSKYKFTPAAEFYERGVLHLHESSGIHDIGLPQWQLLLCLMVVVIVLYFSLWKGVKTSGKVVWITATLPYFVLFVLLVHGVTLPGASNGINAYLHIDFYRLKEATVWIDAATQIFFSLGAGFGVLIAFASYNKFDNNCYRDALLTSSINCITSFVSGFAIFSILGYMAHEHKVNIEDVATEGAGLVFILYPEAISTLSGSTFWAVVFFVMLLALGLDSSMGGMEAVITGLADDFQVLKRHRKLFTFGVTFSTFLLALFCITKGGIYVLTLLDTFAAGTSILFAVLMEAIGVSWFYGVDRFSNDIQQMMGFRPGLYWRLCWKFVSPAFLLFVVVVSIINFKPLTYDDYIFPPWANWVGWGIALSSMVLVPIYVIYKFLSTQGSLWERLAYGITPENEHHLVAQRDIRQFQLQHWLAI

Row | SMILES | inhibition at 1 µM
1 | CNC[C@H](O)[C@@H](c1ccccc1)n1ccc2cc(Cl)ccc21 (racemic) [Example 26, (1RS,2SR)-1-(5-chloro-1H-indol-1-yl)-3-(methylamino)-1-phenylpropan-2-ol hydrochloride] | 54%
2 | CNC[C@@H](O)[C@H](c1ccccc1)n1ccc2cc(F)ccc21 [Example 75, (1S,2R)-1-(5-fluoro-1H-indol-1-yl)-3-(methylamino)-1-phenylpropan-2-ol hydrochloride] | 88.4%
3 | CNC[C@@H](O)[C@H](c1cccc(C(F)(F)F)c1)n1ccc2ccccc21 [Example 136, (1S,2R)-1-(1H-indol-1-yl)-3-(methylamino)-1-[3-(trifluoromethyl)phenyl]propan-2-ol hydrochloride] | 97%
4 | CNCC(O)[C@@H](c1ccccc1)n1ccc2ccccc21 (stereo in doubt) [Example 22, (1R,2S)-1-(1H-indol-1-yl)-3-(methylamino)-1-phenylpropan-2-ol hydrochloride] | 83.8%
5 | CNC[C@@H](O)[C@H](c1cccc(F)c1)n1ccc2c(Br)cccc21 [Example 125, (1S,2R)-1-(4-bromo-1H-indol-1-yl)-1-(3-fluorophenyl)-3-(methylamino)propan-2-ol hydrochloride] | 94.3%
6 | CNC[C@@H](O)[C@H](c1ccccc1)n1ccc2cc(OC)ccc21 (racemic) [Example 80, (1RS,2SR)-1-(5-methoxy-1H-indol-1-yl)-3-(methylamino)-1-phenyl propan-2-ol hydrochloride] | 83.5%
7 | CNC[C@@H](O)[C@H](c1cccc(Br)c1)n1ccc2ccccc21 [Example 43, (1S,2R)-1-(3-bromophenyl)-1-(1H-indol-1-yl)-3-(methylamino)propan-2-ol hydrochloride] | 99%
8 | CNC[C@H](O)[C@@H](c1ccccc1)n1ccc2ccccc21 (racemic) [Example 11, (1RS,2SR)-1-(1H-indol-1-yl)-3-(methylamino)-1-phenylpropan-2-ol hydrochloride] | 94.5%
9 | CNC[C@@H](O)[C@H](c1ccccc1)n1c(=O)n(C(C)C)c2ccccc21 [Example 203, 1-[(1S,2R)-2-hydroxy-3-(methylamino)-1-phenylpropyl]-3-isopropyl-1,3-dihydro-2H-benzimidazol-2-one hydrochloride] | 98.9%
10 | CNC[C@@H](O)[C@H](c1cccc(F)c1)n1cc(C)c2ccccc21 [Example 143, (1S,2R)-1-(3-fluorophenyl)-3-(methylamino)-1-(3-methyl-1H-indol-1-yl)propan-2-ol hydrochloride] | 96.8%
11 | Cc1cn([C@@H](c2ccccc2)[C@H](O)CN)c2ccccc12 [Example 178, (1S,2R)-3-amino-1-(3-methyl-1H-indol-1-yl)-1-phenylpropan-2-ol hydrochloride] | 69.2%
12 | CNC[C@@H](O)[C@H](c1ccccc1F)n1ccc2ccccc21 [Example 50, (1S,2R)-1-(2-fluorophenyl)-1-(1H-indol-1-yl)-3-(methylamino)propan-2-ol hydrochloride] | 91.8%

Same assay, conditions: test compound 1 μM; [3H]NE uptake, MDCK-Net6 cells; read-out: % Inhibition @ 1 μM (hNET)

Row | SMILES | inhibition at 1 µM
13 | O[C@@H](CNCc1ccccc1)[C@@H](c1ccccc1)n1ccc2ccccc21 (racemic) [Example 7, (1RS,2SR)-3-(benzylamino)-1-(1H-indol-1-yl)-1-phenylpropan-2-ol hydrochloride] | 25.6%
14 | CNC[C@@H](O)[C@H](c1ccccc1)n1ccc2c(OC)cccc21 (racemic) [Example 74, (1RS,2SR)-1-(4-methoxy-1H-indol-1-yl)-3-(methylamino)-1-phenyl propan-2-ol hydrochloride] | 67%
15 | CNC[C@@H](O)[C@H](c1ccccc1)N1C(=O)C(C)(C)c2cccc(F)c21 [Example 99, 7-fluoro-1-[(1S,2R)-2-hydroxy-3-(methylamino)-1-phenylpropyl]-3,3-dimethyl-1,3-dihydro-2H-indol-2-one hydrochloride] | 98.1%
16 | O[C@@H](CNCc1ccncc1)[C@@H](c1ccccc1)n1ccc2ccccc21 (racemic) [Example 14, (1RS,2SR)-1-(1H-indol-1-yl)-1-phenyl-3-[(pyridin-4-ylmethyl)amino]propan-2-ol hydrochloride] | 24.4%
17 | CNC[C@@H](O)[C@H](c1ccccc1OC(F)(F)F)n1ccc2ccccc21 [Example 36, (1S,2R)-1-(1H-indol-1-yl)-3-(methylamino)-1-[2-(trifluoromethoxy)phenyl]propan-2-ol hydrochloride] | 82.3%
18 | NC[C@H](O)[C@@H](c1ccccc1)n1ccc2ccccc21 (racemic) [Example 17, (1RS,2SR)-3-amino-1-(1H-indol-1-yl)-1-phenylpropan-2-ol hydrochloride] | 71%

Results, then the compound that gave them:

Row | inhibition at 1 µM | SMILES
19 | 72% | CNC[C@@H](O)[C@H](c1cccc(F)c1)n1cc(-c2ccc(OC)cc2)c2ccccc21 [Example 169, (1S,2R)-1-(3-fluorophenyl)-1-[3-(4-methoxyphenyl)-1H-indol-1-yl]-3-(methylamino)propan-2-ol hydrochloride]
20 | 99.6% | CNC[C@@H](O)[C@H](c1cc(F)cc(F)c1)N1CCc2ccccc21 [Example 158, (1S,2R)-1-(3,5-difluorophenyl)-1-(2,3-dihydro-1H-indol-1-yl)-3-(methylamino)propan-2-ol hydrochloride]
21 | 97.1% | CNC[C@@H](O)[C@H](c1ccccc1)n1ccc2c(F)cccc21 [Example 182, (1S,2R)-1-(4-fluoro-1H-indol-1-yl)-3-(methylamino)-1-phenylpropan-2-ol hydrochloride]
22 | 99.6% | CNC[C@@H](O)[C@H](c1cccc(F)c1)n1cc(-c2ccccc2C(F)(F)F)c2ccccc21 [Example 175, (1S,2R)-1-(3-fluorophenyl)-3-(methylamino)-1-{3-[2-(trifluoromethyl)phenyl]-1H-indol-1-yl}propan-2-ol hydrochloride]
23 | 99.4% | CNC[C@@H](O)[C@H](c1ccccc1)N1C(=O)C2(CCCCC2)c2ccccc21 [Example 104, 1′-[(1S,2R)-2-hydroxy-3-(methylamino)-1-phenylpropyl]spiro[cyclo-hexane-1,3′-indol]-2′(1′H)-one hydrochloride]
24 | 88% | CNC[C@@H](O)[C@H](c1cccc(F)c1)n1cc(-c2cccc(OC)c2)c2ccccc21 [Example 172, (1S,2R)-1-(3-fluorophenyl)-1-[3-(3-methoxyphenyl)-1H-indol-1-yl]-3-(methylamino)propan-2-ol hydrochloride]
25 | 97.8% | CNC[C@@H](O)[C@H](c1ccccc1)n1ccc2cccc(Cl)c21 [Example 148, (1S,2R)-1-(7-chloro-1H-indol-1-yl)-3-(methylamino)-1-phenylpropan-2-ol hydrochloride]
26 | 85.8% | O[C@H]([C@@H]1CCCN1)[C@H](c1cccc(F)c1)n1ccc2ccccc21 [Example 106, (1R,2S)-2-(3-fluorophenyl)-2-(1H-indol-1-yl)-1-[(2S)-pyrrolidin-2-yl]ethanol hydrochloride]
27 | 95.3% | CNC[C@@H](O)[C@@H](c1cccs1)n1ccc2ccccc21 [Example 102, (1S,2R)-1-(1H-indol-1-yl)-3-(methylamino)-1-(2-thienyl)propan-2-ol hydrochloride]
